Patent EP4652998A1, “TREATMENT OF RECEPTOR-INTERACTING PROTEIN KINASE 1- MEDIATED DISEASE WITH ECLITASERTIB” (Technische Universität München, priority 2024, dated 2025)

How the values were obtained:
[1] = system: keratinocyte skin equivalents; assay: Three-dimensional keratinocyte skin equivalents stimulated with LP/LE-TCS, histology and epidermal thickness; format: cell-based, human; conditions: 100 nM inhibitor, LP/LE-TCS 1:10 + zVAD + SMAC, 72 h
Procedure: Three-dimensional keratinocyte skin equivalents were generated as described before Arch Dermatol Res 296, 203-211 (2004)). Briefly, 3.0E^5 primary human keratinocytes were seeded in 500 µL keratinocyte medium with 1.5 mM CaCh into the insert and placed in a well containing the same medium. After two days, keratinocytes were exposed to the air-liquid interface and medium in the surrounding well was supplemented with 50 µg/mL Vitamin C. Nine days after airlift, the skin equivalents were pre-treated for 1 h with RIPK1 inhibitor (100 nM, SANOFI) followed by a stimulation with supernatant mix of lesional T cells from LP and LE patients (1: 10 diluted) in the presence of zVAD (20 µM, Cell Signaling, #60332), SMAC (1 µM, LC Laboratories, #B-9135) and the RIPK1 inhibitor for 72 h. Afterwards, membranes of the fixated skin equivalents were cut out with a scalpel, divided into two pieces, formalin fixed and embedded in paraffin. […] Concentrations of key cytokines in the supernatant mix of lesional T cells were determined by a multiplex ELISA (Biorad) and listed in Table S4. […]

[2] = system: lesional skin of LP patients; assay: Human lesional skin biopsy cultures ex vivo, gene expression by qPCR; format: cell-based; conditions: 1 µM inhibitor, 4 h, LP skin biopsies (n=5), compared to autologous non-treated controls
Procedure: 6 mm punch biopsies of lesional skin of LP patients (n=5) were obtained under local anaesthesia. Biopsies were divided into two parts and treated with the RIPK1 inhibitor (1 µM, SANOFI) or without as untreated control sample for 4 h in T cell media (RPMI 1640 medium with 1 % human serum, 0.1 mM non-essential aminoacids, 2 mM L-Glutamine, 1 mM sodium pyruvate and 100 U/mL penicillin/streptomycin). After stimulation, biopsies were stored in RNALater® solution at -80 °C until RNA preparation. RNA was isolated using QIAzol Lysis Reagent (Qiagen) and miRNeasy Mini Kit (Qiagen) according to manufacturer's protocol. mRNA was transcribed into cDNA with Applied Biosytems High Capacity cDNA Reverse Transcription Kit (Thermo Fisher Scientific). Gene expression was measured on an Applied Biosystems ViiA7 Real-Time PCR system (Thermo Fisher Scientific) using Fast Start Universal SYBRGreen Master Rox (Roche). Primers were ordered from Metabion (http://www.metabion.com) and are listed in supplementary Table S5. Data are shown as relative gene expression to untreated sample using 2^-(ΔΔcT) method. Table S5. Primer sequences. Fw = forward. rv = reverse.

[3] = system: primary human keratinocytes; assay: Multiplex ELISA of cytokines released by keratinocytes after cell death induction; format: cell-based; conditions: 24 h
Procedure: (§1) Primary human keratinocytes were obtained from healthy donors by suction blister as reported before (J Allergy Clin Immunol 141, 1320-1333 e1311 (2018)) and donor characteristics are listed in Table S3. Epidermal keratinocytes were cultured in keratinocyte medium (DermaLife Basal Medium supplemented with DermaLife K LifeFactor Kit (Lifeline Cell Technology, LL-0007)) at 37 °C, 5 % CO2 and second- to third-passages were used. At 70-80 % of confluence, keratinocytes were pre-incubated for 1 h with RIPK1 inhibitor (100 nM or as indicated, SANOFI) followed by stimulation with rhIFN-γ (100 ng/ml or as indicated, R&D, #285-IF-100/CF) and rhTNF-α (100 ng/ml or as indicated, R&D, #210_TA/CF) in the presence of zVAD (20 µM, Cell Signaling, #60332), SMAC (1 µM, LC Laboratories, #B-9135) and the RIPK1 inhibitor for 24 h in keratinocyte medium without hydrocortisone.
Cell free supernatants derived from keratinocyte stimulation experiments or lesional TCS from LP/LE patients were analysed for 27 cytokines, chemokines and growth factors using the Bio-Plex Pro Human Cytokine 27-plex Assay (Bio-Rad Laboratories, Hercules, Calif) according to the manufacturer's recommendation.

[4] = system: primary human keratinocytes; assay: Cell viability assay (MTS/PMS) after cell death induction with IFN-γ + TNF-α + zVAD + SMAC; format: cell-based; conditions: 4 nM RIPK1 inhibitor (or higher), zVAD [20 µM] and SMAC [1 µM], 24 h, normalized to zVAD + SMAC (100 %), stimulated control 43,6 % ± 7.6 %, n=4
Procedure: as §1
Cell viability of cultured keratinocytes was determined using CellTiter 96® Aqueous NonRadioactive Cell Proliferation Assay (Promega, G5421) according to manufacturer's instructions. MTS/PMS reagent was used 1:6 diluted in keratinocyte medium without hydrocortisone and incubated for 1 h. Afterwards, supernatants were analysed by ELISA at 490 nm minus 700 nm as reference. To calculate the percentage of cell viability to ZS extinction values were normalized to the control stimulation zVAD + SMAC (100 %).

[5] = system: keratinocyte skin equivalents; assay: Three-dimensional keratinocyte skin equivalents stimulated with LP/LE-TCS, secreted cytokines in supernatant; format: cell-based, human; conditions: 100 nM inhibitor, 72 h, relative concentration to stimulated control (ZS + LP/LE-TCS) without inhibitor, n=3
Procedure: Three-dimensional keratinocyte skin equivalents were generated as described before Arch Dermatol Res 296, 203-211 (2004)). Briefly, 3.0E^5 primary human keratinocytes were seeded in 500 µL keratinocyte medium with 1.5 mM CaCh into the insert and placed in a well containing the same medium. After two days, keratinocytes were exposed to the air-liquid interface and medium in the surrounding well was supplemented with 50 µg/mL Vitamin C. Nine days after airlift, the skin equivalents were pre-treated for 1 h with RIPK1 inhibitor (100 nM, SANOFI) followed by a stimulation with supernatant mix of lesional T cells from LP and LE patients (1: 10 diluted) in the presence of zVAD (20 µM, Cell Signaling, #60332), SMAC (1 µM, LC Laboratories, #B-9135) and the RIPK1 inhibitor for 72 h. Afterwards, membranes of the fixated skin equivalents were cut out with a scalpel, divided into two pieces, formalin fixed and embedded in paraffin. Primary human lesional T cells were isolated from freshly taken skin biopsies of LP (n=5) and LE (n=3) patients (patient characteristics see Table S 1) by emigration towards an IL-2 gradient followed by expansion with α-CD3/α-CD28 stimulation as described previously (J Invest Dermatol, (2018), Case Rep Pathol 2021, 8819560 (2021)). Supernatants of expanded lesional T cells were generated by 3-day stimulation with 0.75 µg/mL α-CD3 (pre-coated, BD Biosciences) and 0.75 µg/mL soluble α-CD28 (BD Biosciences). A mixture of all 8 lesional supernatants at equimolar ratio was used for stimulation of 3D keratinocyte skin equivalents. Concentrations of key cytokines in the supernatant mix of lesional T cells were determined by a multiplex ELISA (Biorad) and listed in Table S4. Table S4. Composition of lesional LP/LE-TCS mix. Hu = human. Cell free supernatants derived from keratinocyte stimulation experiments or lesional TCS from LP/LE patients were analysed for 27 cytokines, chemokines and growth factors using the Bio-Plex Pro Human Cytokine 27-plex Assay (Bio-Rad Laboratories, Hercules, Calif) according to the manufacturer's recommendation.

RIPK1 = biological target: T1, RIPK1 (Homo sapiens, UniProt Q13546); assay: Western blot of RIPK1-pS166 autophosphorylation in keratinocytes; format: cell-based; conditions: RIPK1-pS166, 100 nM inhibitor, 6 h after IFN-γ [10 ng/ml] + TNF-α [10 ng/ml] + zVAD [20 µM]
T1 construct: Detection of RIPK1-pS 166 in WB analysis of primary human keratinocytes; endogenous in cells; host or cells: primary human keratinocytes from healthy donors (suction blister)
T1 sequence (Q13546 1-671): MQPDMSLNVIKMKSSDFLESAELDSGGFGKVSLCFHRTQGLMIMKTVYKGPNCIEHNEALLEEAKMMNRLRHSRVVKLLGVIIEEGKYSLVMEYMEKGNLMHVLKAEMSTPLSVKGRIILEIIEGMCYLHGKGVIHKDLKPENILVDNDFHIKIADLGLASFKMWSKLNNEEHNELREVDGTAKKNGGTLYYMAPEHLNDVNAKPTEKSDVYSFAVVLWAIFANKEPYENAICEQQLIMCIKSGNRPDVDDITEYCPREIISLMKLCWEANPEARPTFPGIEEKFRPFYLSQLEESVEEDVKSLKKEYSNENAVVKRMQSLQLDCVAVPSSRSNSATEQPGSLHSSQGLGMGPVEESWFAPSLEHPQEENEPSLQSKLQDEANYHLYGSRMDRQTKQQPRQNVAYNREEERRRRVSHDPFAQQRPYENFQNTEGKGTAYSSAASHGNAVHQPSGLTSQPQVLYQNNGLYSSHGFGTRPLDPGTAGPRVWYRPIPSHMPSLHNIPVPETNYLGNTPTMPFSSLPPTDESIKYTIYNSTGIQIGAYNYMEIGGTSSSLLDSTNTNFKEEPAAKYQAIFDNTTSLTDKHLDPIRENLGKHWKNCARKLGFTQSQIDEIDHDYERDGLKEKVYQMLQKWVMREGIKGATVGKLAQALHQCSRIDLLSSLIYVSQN
Procedure: Keratinocytes were lysed in RIPA lysis buffer (Santa Cruz) supplemented with 1 mM sodium orthovanadate, 2mM PMSF and proteinase inhibitor cocktail (1:70) according to the manufacturer's instructions.

C57BL/6 mice = assay: Tnf-α-driven systemic inflammatory response syndrome (SIRS) model, hypothermia; format: in vivo; conditions: 15 min after Tnf-α (0.3 mg/kg)/zVAD i.v., 5 h, Tnf-α/zVAD alone -9.3 ± 0.3, vehicle -1.9 ± 0.5
Procedure: TNF-α driven systemic inflammatory response syndrome (SIRS) model was performed as described before (Immunity 35, 908-918 (2011)). Briefly, male C57BL/6 mice (n=6 per group) were injected into the tail vain with a volume of 125 µl per 25 g mouse of either vehicle (15 % PEG 200; 8.4 % DMSO; 0.6 % NaCl) or a mixture of murine Tnf-α (0.3 mg/kg) and zVAD (6.7 mg/kg) prepared in vehicle. No Tnf-α/zVAD was administered to the vehicle group. 15 min after induction of hypothermia by application of Tnf-α/zVAD mix, animals were orally dosed with RIPK1 inhibitor or GSK`963. Body temperature was monitored every hour using radio-frequency identification (RFID) technology with IPTT-300 transponders that were injected subcutaneously 2-3 days before initiation of the experiment.
Next, the effects of RIPK1 inhibition were assessed in vivo using a murine Tnf-α-driven systemic inflammatory response syndrome model (Immunity 35, 908-918 (2011)). C57BL/6 mice (n=6 per group) were injected of either vehicle (15 % PEG 200; 8.4 % DMSO; 0.6 % NaCL 0.9 %) or a mixture of murine Tnf-α (0.3 mg/kg) and zVAD (16.7 mg/kg) into the tail vein. 15 minutes after induction of hypothermia, animals were orally dosed with the RIPK1 inhibitors SAR443122 or GSK`963, a previously described RIPK1 inhibitor ( Cell Death Discov 1, 15009 (2015)). Body temperature was monitored up to 5 hours using radio-frequency identification technology with IPTT-300 transponders that were injected subcutaneously 2-3 days before initiation of the experiment (Fig. 4A). Animals receiving the Tnf-α/zVAD mixture rapidly responded with a significant decrease of body temperature within 5 hours from 37.3 ± 0.2 °C to 27.9 ± 0.2 °C and a delta temperature of -9.3 ± 0.3 °C (p=0.0002) compared to vehicle (-1.9 ± 0.5 °C). Oral administration of RIPK1 inhibitor led to a dose dependent increase of delta body temperature (1 mg/kg: -8.8 ± 0.5 °C; 5 mg/kg: -7.6 ± 1.2 °C; 15 mg/kg: -3.4 ± 1.3 °C, p=0.0007 to Tnf-α/zVAD) (Fig. 4B).

With CN1C(=O)[C@@H](NC(=O)c2nnc(Cc3ccccc3)[nH]2)COc2cccnc21 [SAR443122, 5-Benzyl-N-[(3S)-5-methyl-4-oxo-2,3-dihydropyrido[3,2-b][1,4]oxazepin-3-yl]-4H-1,2,4-triazole-3-carboxamide] the epidermal architecture [1] was “restored the normal epidermal architecture”, the epidermal thickness ([1]; stimulated control 102.0 ± 5.1, unstimulated 61.3 ± 5.4, p<0.0001) was 80.3 ± 5.1 µm and the “downregulation of CCL3” value [2] was 62%. For the same molecule, the “downregulation of CXCL9” value [2] was 57%, the “downregulation of CXCL10” value [2] was 40% and the “downregulation of CXCL11” value [2] was 43%. The “downregulation of IFNg” value [2] was 60%, the “downregulation of IL1RA” value [2] was 65% and the “downregulation of TNF” value [2] was 60%. For the same molecule, the “release of IL-1β” value ([3]; IFN-γ + TNF-α + zVAD + SMAC, dose dependent, p=0.0050 for 100 nM, n=4) was “significantly diminished the release of IL-1β to basal levels”, the “IL-1α, IL-1RA, CXCL5, IL-8 (CXCL8), GM-CSF and CCL20” value ([3]; secreted cytokines, 100 ng/ml IFN-γ + TNF-α + zVAD + SMAC, n=3) was “significant reduction” and the viability [4] was 95.1 % ± 0.8. For the same molecule, the “release of CCL20” value [5] was 29.1 % ± 4.4, the “release of II,-1RA” value [5] was 48.9 % ± 18.0 and the “release of TNF-α” value [5] was 70.3 % ± 6.3. The “release of IL-8” value ([5]; p=0.4757) was 79.8 % ± 9.6, the RIPK1 autophosphorylation (RIPK1) was “efficiently blocked” and the delta body temperature (C57BL/6 mice; 1 mg/kg oral) was -8.8 ± 0.5 °C. It also gave a delta body temperature (C57BL/6 mice; 5 mg/kg oral) of -7.6 ± 1.2 °C and a delta body temperature (C57BL/6 mice; 15 mg/kg oral, p=0.0007 to Tnf-α/zVAD) of -3.4 ± 1.3 °C.
